Measurements reported in patent publication US9695155B2, “Herbicidal substituted pyrimidinyloxy benzene compounds” (E. I. DU PONT DE NEMOURS AND COMPANY, priority 2013, dated 2017).

Experiments:
[1] = test system: corn; assay: Test E postemergence; type: in vivo, Zea mays
Summary of the method: (§1)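 Test chemicals formulated in a non-phytotoxic solvent mixture containing a surfactant were applied preemergence to seeds in silt loam soil or postemergence to plants at the 1- to 4-leaf stage in potting mix. After 14 to 21 days in a greenhouse, injury was visually rated against controls on a 0-100 scale (0 = no effect, 100 = complete control).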

[2] = test system: waterhemp; assay: Test E postemergence; type: in vivo, Amaranthus rudis
Summary of the method: as §1

[3] = test system: large (Lg) crabgrass; assay: Test E preemergence; type: in vivo, Digitaria sanguinalis; details: for Crabgrass, Large plant response rating: scale 0 to 100 (0 no effect, 100 complete control); for Plant response rating, Crabgrass, Large: scale 0 to 100, 0 no effect, 100 complete control
Summary of the method: as §1

[4] = test system: wild poinsettia; assay: Test E postemergence; type: in vivo, Euphorbia heterophylla
Summary of the method: as §1

[5] = test system: Brazilian crabgrass; assay: Test E postemergence; type: in vivo, Digitaria horizontalis
Summary of the method: as §1

[6] = test system: palmer pigweed; assay: Test E postemergence; type: in vivo, Amaranthus palmeri
Summary of the method: as §1

[7] = test system: morningglory; assay: Test E preemergence; type: in vivo, Ipomoea coccinea; details: for Morningglory plant response rating: scale 0 to 100 (0 no effect, 100 complete control); for Plant response rating, Morningglory: scale 0 to 100, 0 no effect, 100 complete control
Summary of the method: as §1

[8] = test system: palmer pigweed; assay: Test E preemergence; type: in vivo, Amaranthus palmeri; details: for Pigweed, Palmer plant response rating: scale 0 to 100 (0 no effect, 100 complete control); for Plant response rating, Pigweed, Palmer: scale 0 to 100, 0 no effect, 100 complete control
Summary of the method: as §1

[9] = test system: kochia; assay: Test E preemergence; type: in vivo, Kochia scoparia; details: for Kochia plant response rating: scale 0 to 100 (0 no effect, 100 complete control); for Plant response rating, Kochia: scale 0 to 100, 0 no effect, 100 complete control
Summary of the method: as §1

[10] = test system: hairy beggarticks; assay: Test E postemergence; type: in vivo, Bidens pilosa
Summary of the method: as §1

[11] = test system: field bindweed; assay: Test E postemergence; type: in vivo, Convolvulus arvensis
Summary of the method: as §1

[12] = test system: Italian ryegrass; assay: Test E preemergence; type: in vivo, Lolium multiflorum; details: for Ryegrass, Italian plant response rating: scale 0 to 100 (0 no effect, 100 complete control); for Plant response rating, Ryegrass, Italian: scale 0 to 100, 0 no effect, 100 complete control
Summary of the method: as §1

[13] = test system: ducksalad; assay: Test C flooded paddy test; type: in vivo, Heteranthera limosa; details: Flood, scale 0 to 100 (0 no effect, 100 complete control), 13 to 15 days
Summary of the method: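 Visual injury ratings against untreated controls, taken 13 to 15 days after compound was added to paddy water standing 3 cm above the soil.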

[14] = test system: Brazilian crabgrass; assay: Test E preemergence; type: in vivo, Digitaria horizontalis; details: for Crabgrass, Brazil plant response rating: scale 0 to 100 (0 no effect, 100 complete control); for Plant response rating, Crabgrass, Brazil: scale 0 to 100, 0 no effect, 100 complete control
Summary of the method: as §1

[15] = test system: sandbur; assay: Test E postemergence; type: in vivo, Cenchrus echinatus
Summary of the method: as §1

[16] = test system: fall panicum; assay: Test E postemergence; type: in vivo, Panicum dichotomiflorum
Summary of the method: as §1

[17] = test system: waterhemp; assay: Test E preemergence; type: in vivo, Amaranthus rudis; details: for Waterhemp plant response rating: scale 0 to 100 (0 no effect, 100 complete control); for Plant response rating, Waterhemp: scale 0 to 100, 0 no effect, 100 complete control
Summary of the method: as §1

[18] = test system: lambsquarters; assay: Test E preemergence; type: in vivo, Chenopodium album; details: for Lambsquarters plant response rating: scale 0 to 100 (0 no effect, 100 complete control); for Plant response rating, Lambsquarters: scale 0 to 100, 0 no effect, 100 complete control
Summary of the method: as §1

[19] = Postemergence, 31 g ai/ha, scale 0 to 100
[20] = Postemergence, 62 g ai/ha, scale 0 to 100
[21] = Postemergence, 125 g ai/ha, scale 0 to 100
[22] = Postemergence, 250 g ai/ha, scale 0 to 100
[23] = postemergence, 16 g ai/ha, scale 0 to 100, 0 no effect, 100 complete control

N#Cc1cnn(-c2c(C#N)cccc2Oc2ncc(Cl)cn2)c1 [Compound 200]
Plant response rating, Corn [1, 19]: 10 | Plant response rating, Corn [1, 20]: 15 | Plant response rating, Corn [1, 21]: 20 | Plant response rating, Corn [1, 22]: 25 | Plant response rating, Corn [1, 23]: 10 | Plant response rating, Waterhemp [2, 19]: 90 | Plant response rating, Waterhemp [2, 20]: 95 | Plant response rating, Waterhemp [2, 21]: 95 | Plant response rating, Waterhemp [2, 22]: 100 | Plant response rating, Waterhemp [2, 23]: 80 | Crabgrass, Large plant response rating ([3]; 16 g ai/ha): 5 | Crabgrass, Large plant response rating ([3]; 31 g ai/ha): 35 | Crabgrass, Large plant response rating ([3]; 62 g ai/ha): 65 | Plant response rating, Crabgrass, Large ([3]; 125 g ai/ha): 80 | Plant response rating, Crabgrass, Large ([3]; 250 g ai/ha): 100 | Plant response rating, Poinsettia, Wild [4, 19]: 80 | Plant response rating, Poinsettia, Wild [4, 20]: 70 | Plant response rating, Poinsettia, Wild [4, 21]: 90 | Plant response rating, Poinsettia, Wild [4, 22]: 90 | Plant response rating, Poinsettia, Wild [4, 23]: 50 | Plant response rating, Crabgrass, Brazil [5, 19]: 15 | Plant response rating, Crabgrass, Brazil [5, 20]: 30 | Plant response rating, Crabgrass, Brazil [5, 21]: 50 | Plant response rating, Crabgrass, Brazil [5, 22]: 60 | Plant response rating, Crabgrass, Brazil [5, 23]: 10 | Plant response rating, Pigweed, Palmer [6, 19]: 70 | Plant response rating, Pigweed, Palmer [6, 20]: 75 | Plant response rating, Pigweed, Palmer [6, 21]: 98 | Plant response rating, Pigweed, Palmer [6, 22]: 100 | Plant response rating, Pigweed, Palmer [6, 23]: 40 | Morningglory plant response rating ([7]; 31 g ai/ha): 20 | Morningglory plant response rating ([7]; 62 g ai/ha): 50 | Plant response rating, Morningglory ([7]; 125 g ai/ha): 90 | Plant response rating, Morningglory ([7]; 250 g ai/ha): 98 | Pigweed, Palmer plant response rating ([8]; 31 g ai/ha): 40 | Pigweed, Palmer plant response rating ([8]; 62 g ai/ha): 100 | Plant response rating, Pigweed, Palmer ([8]; 125 g ai/ha): 100 | Plant response rating, Pigweed, Palmer ([8]; 250 g ai/ha): 100 | Kochia plant response rating ([9]; 31 g ai/ha): 60 | Kochia plant response rating ([9]; 62 g ai/ha): 95 | Plant response rating, Kochia ([9]; 125 g ai/ha): 100 | Plant response rating, Kochia ([9]; 250 g ai/ha): 100 | Plant response rating, Beggarticks [10, 19]: 60 | Plant response rating, Beggarticks [10, 20]: 70 | Plant response rating, Beggarticks [10, 21]: 90 | Plant response rating, Beggarticks [10, 22]: 95 | Plant response rating, Beggarticks [10, 23]: 50 | Plant response rating, Field Bindweed [11, 19]: 70 | Plant response rating, Field Bindweed [11, 20]: 90 | Plant response rating, Field Bindweed [11, 21]: 95 | Plant response rating, Field Bindweed [11, 22]: 95 | Plant response rating, Field Bindweed [11, 23]: 70 | Ryegrass, Italian plant response rating ([12]; 31 g ai/ha): 0 | Ryegrass, Italian plant response rating ([12]; 62 g ai/ha): 20 | Plant response rating, Ryegrass, Italian ([12]; 125 g ai/ha): 60 | Plant response rating, Ryegrass, Italian ([12]; 250 g ai/ha): 80 | Plant response rating, Ducksalad ([13]; 31 g ai/ha): 0 | Plant response rating, Ducksalad ([13]; 62 g ai/ha): 0 | Plant response rating, Ducksalad ([13]; 125 g ai/ha): 20 | Plant response rating, Ducksalad ([13]; 250 g ai/ha): 80 | Crabgrass, Brazil plant response rating ([14]; 16 g ai/ha): 30 | Crabgrass, Brazil plant response rating ([14]; 31 g ai/ha): 85 | Crabgrass, Brazil plant response rating ([14]; 62 g ai/ha): 100 | Plant response rating, Crabgrass, Brazil ([14]; 125 g ai/ha): 100 | Plant response rating, Crabgrass, Brazil ([14]; 250 g ai/ha): 100 | Plant response rating, Sandbur [15, 19]: 0 | Plant response rating, Sandbur [15, 20]: 0 | Plant response rating, Sandbur [15, 21]: 0 | Plant response rating, Sandbur [15, 22]: 10 | Plant response rating, Sandbur [15, 23]: 0 | Plant response rating, Panicum, Fall [16, 19]: 10 | Plant response rating, Panicum, Fall [16, 20]: 20 | Plant response rating, Panicum, Fall [16, 21]: 50 | Plant response rating, Panicum, Fall [16, 22]: 50 | Plant response rating, Panicum, Fall [16, 23]: 10 | Waterhemp plant response rating ([17]; 31 g ai/ha): 100 | Waterhemp plant response rating ([17]; 62 g ai/ha): 100 | Plant response rating, Waterhemp ([17]; 125 g ai/ha): 100 | Plant response rating, Waterhemp ([17]; 250 g ai/ha): 100 | Lambsquarters plant response rating ([18]; 31 g ai/ha): 65 | Lambsquarters plant response rating ([18]; 62 g ai/ha): 80 | Plant response rating, Lambsquarters ([18]; 125 g ai/ha): 98 | Plant response rating, Lambsquarters ([18]; 250 g ai/ha): 100
